Entries after “also recorded” stand apart in the source; their conditions may differ. Read-outs that look alike come from different tables or passages of the source.
What was measured:
[1] = Electrochemical testing (Tafel Plot), corrosion current, corrosion potential and pH of simulated acid rain saturated with pigment
[2] = Primary skin irritation; type: in vivo; details: 0.5 g in Saline Paste
[3] = Draize eye irritation; type: in vivo; details: 100 mg
[4] = Salt spray exposure, Example VI (ASTM B117-73; alkyd and latex primers); details: for Salt spray durability, in words: FIG. 3, alkyd formulation
[5] = Salt spray exposure, Example V (alkyd and latex primers)
[6] = Acute oral toxicity; type: in vivo
[7] = water
[8] = in vivo; cited from earlier work
[9] = Table III, simulated acid rain electrolyte pH about 4.2, saturated with pigment

NCCN.O=C([O-])CCCCC(=O)[O-].[Zn+2] [Compound 3, Zinc Adipate Ethylenediamine]
Corrosion Curr. (Icorr) [1, 9]: 78 microamps
Skin Irritation, rating in words [2]: minimally irritating
Eye Irritation, rating in words [3]: moderately-irritating
Salt spray durability, in words [4]: superior to "Zinc Yellow" (zinc chromate) in salt spray durability

CC(N)CN.O=C([O-])CCCCC(=O)[O-].[Zn+2] [Compound 4, Zinc Adipate Propylenediamine]
Salt spray durability, in words [4]: superior to "Zinc Yellow" (zinc chromate) in salt spray durability

NCCN.O=C([O-])CCCCCCCC(=O)[O-].[Zn+2] [Compound 5, Zinc Azelate Ethylenediamine]
pH ([1]; Table III): 6.78
Corrosion Pot. (Ecorr) ([1]; Table III, against saturated calomel electrode): -667 millivolts
Corrosion Curr. (Icorr) [1, 9]: 82 microamps
Effect of kaolin on salt spray performance ([5]; distended on kaolin): anomolously reduced the performance

NCCN.O=C([O-])CCCCCCCCC(=O)[O-].[Zn+2] [Compound 6, Zinc Sebacate Ethylenediamine]
Corrosion Curr. (Icorr) [1]: 170 microamps
Corrosion Pot. (Ecorr) [1]: -462 millivolts
pH [1]: 6.8
Skin Irritation, rating in words [2]: minimally irritating
Eye Irritation, rating in words [3]: severely irritating

O=C([O-])CCCCCCCCCCC(=O)[O-].OCCN(CCO)CCO.[Zn+2] [Compound 10, Zinc Dibasate Triethanolamine]
Corrosion Curr. (Icorr) [1]: 93 microamps
Corrosion Pot. (Ecorr) [1]: -580 millivolts
pH [1]: 7.2

NCCN.O=C([O-])CCCCCCCCCCC(=O)[O-].[Zn+2] [Compound 11, Zinc Dodecanedioate Ethylenediamine]
Corrosion Curr. (Icorr) [1, 9]: 130 microamps
Salt spray durability, in words [4]: superior to "Zinc Yellow" (zinc chromate) in salt spray durability

CCNCC.O=C([O-])CCCCCCCCCCC(=O)[O-].[Zn+2] [Compound 12, Zinc Dodecanedioate Diethylamine]
Corrosion Curr. (Icorr) [1]: 197 microamps

NCCN.O=C([O-])c1ccccc1C(=O)[O-].[Zn+2] [Compound 17, Zinc Phthalate Ethylenediamine]
Corrosion Curr. (Icorr) [1]: 83 microamps
Skin Irritation, rating in words [2]: non-irritating

NCCN.O=C([O-])c1cccc(C(=O)[O-])c1.[Zn+2] [Compound 18, Zinc Isophthalate Ethylenediamine]
Salt spray durability, in words [4]: superior to "Zinc Yellow" (zinc chromate) in salt spray durability

Zinc Dibasate Diethylamine [Compound 9]
Corrosion Pot. (Ecorr) [1]: -570 millivolts
pH [1]: 7.0
Acute oral toxicity, mortality ([6]; Oral (5 g/kg in Corn Oil)): 0%
Eye Irritation, rating in words [3]: mildly irritating

Zinc Dibasate Dimethylamine [Compound 21]
Corrosion Curr. (Icorr) [1]: 82 microamps
Corrosion Pot. (Ecorr) [1]: -610 millivolts

Zinc Dibasate Piperidine [Compound 24]
Corrosion Curr. (Icorr) [1]: 40 microamps
Corrosion Pot. (Ecorr) [1]: -610 millivolts

Zinc Dibasate Propylenediamine [Compound 8]
Solubility Description [7]: SS (key: PINS: practically insoluble (<.1 g/100 cc H2 O); SS: slightly soluble (.1 to 1 g/100 cc H2 O); MS: moderately soluble)

Zinc Sulfonyldiphenolate Ethylenediamine [Compound 15]
Corrosion Curr. (Icorr) [1]: 170 microamps
Corrosion Pot. (Ecorr) [1]: -592 millivolts
pH [1]: 7.67
Skin Irritation, rating in words [2]: non-irritating
Eye Irritation, rating in words [3]: severely irritating

Zinc Thiodiphenolate Ethylenediamine [Compound 14]
Corrosion Curr. (Icorr) [1]: 52.5 microamps
Corrosion Pot. (Ecorr) [1]: -570 millivolts
pH [1]: 8.60
Toxicity characteristics (overall statement) ([6]; acute oral, skin and eye tests of Table VIII): unacceptable toxicity characteristics
Eye Irritation, rating in words [3]: extremely irritating
Effect of kaolin on salt spray performance [5]: kaolin likewise enhanced the performance
Hours to failure in salt spray (performance level) [5]: approximately 780 hours
Paint panel durability in salt spray, in words [4]: slightly less than half the durability achieved by the commercial "Zinc Yellow" (zinc chromate) corrosion-inhibitor formulation; also recorded: performed markedly better than commercially available corrosion inhibitors, such as Nalzin, Halox, Busan, "Moly White" and zinc phosphate

Zinc Thiodiphenolate Propylenediamine [Compound 20]
Corrosion Curr. (Icorr) [1]: 46 microamps
Corrosion Pot. (Ecorr) [1]: -560 millivolts
pH [1]: 8.18

zinc chromate
TDLo [8]: 12 mg/kg

Reference: patent US4774345A, “Amine-complexed zinc salts of organic diacids” (Engelhard Corporation, priority 1986, dated 1988)
